Among the test systems are 786-0 renal; A549 NSCLC; CCRF-CEM leukemia; HCC-2998 colon; MALME-3M melanoma; NCI/ADR-RES ovarian; RPMI-8226 leukemia; SW-620 colon; UACC-257 melanoma; UO-31 renal.
Experiment in all cases: NCI anticancer screen, dose series, 48 h

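Where inhibition never reached the appropriate level, the endpoint shown equals the highest concentration tested. Otherwise, values were interpolated linearly from a five-concentration, 48-hour dose response in 96-well plates. GI50 marks 50% less growth. TGI denotes the concentration required for complete inhibition of growth.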

Consider `CCCCCCNC(=O)Oc1ccc(/C(=C(\C)c2ccc(Cl)cc2)c2ccc(OCCN3CCCCC3)cc2)cc1`, for which the GI50 is 1930 nM with 786-0 renal; 4730 nM in the test on A549 NSCLC; 3200 nM in the test with CCRF-CEM leukemia; 4.39 µM in the test on HCC-2998 colon; 3.36 µM in the test with MALME-3M melanoma; 4.15 µM in the test with NCI/ADR-RES ovarian. Besides, the GI50 was 1840 nM in the test on RPMI-8226 leukemia, 1540 nM in the test on SW-620 colon, 4130 nM in the test on UACC-257 melanoma and 2140 nM with UO-31 renal. For the same compound, the TGI in the test with 786-0 renal was 6.41 µM; in the test on A549 NSCLC, 10.5 µM; with CCRF-CEM leukemia, 33.3 µM; in the test with HCC-2998 colon, 9.17 µM; in the test with MALME-3M melanoma, 7.7 µM; in the test on NCI/ADR-RES ovarian, 8.77 µM. The TGI with RPMI-8226 leukemia was determined as 9.68 µM; in the test on SW-620 colon it was 5.59 µM; in the test on UACC-257 melanoma it was 9.98 µM; with UO-31 renal it was 6.57 µM.
For `O=C(O)Cc1cccnc1`, the TGI in the test with 786-0 renal, in the test on A549 NSCLC, in the test on CCRF-CEM leukemia, with HCC-2998 colon, in the test with MALME-3M melanoma and with NCI/ADR-RES ovarian was > 100 µM in each case. Further, the TGI in the test with RPMI-8226 leukemia, in the test with SW-620 colon, in the test on UACC-257 melanoma and in the test with UO-31 renal was > 100 µM throughout.
With `CCC1(O)C(=O)OCc2c1cc1n(c2=O)Cc2cc3c(NC(=O)CN)cccc3nc2-1` (stereo not given), the GI50 with 786-0 renal is 194 nM; with A549 NSCLC, 1200 nM; in the test on CCRF-CEM leukemia, 20.8 nM; in the test with HCC-2998 colon it was 5.07 µM; in the test with MALME-3M melanoma, 6.94 µM; in the test on NCI/ADR-RES ovarian, 0.296 µM. Besides, the GI50 was 1690 nM in the test with RPMI-8226 leukemia, 1750 nM in the test with SW-620 colon, 2090 nM with UACC-257 melanoma and 595 nM in the test with UO-31 renal. The TGI in the test with 786-0 renal was 2.48 µM; in the test with A549 NSCLC, > 67.7 µM; in the test on CCRF-CEM leukemia, 1.43 µM; in the test with HCC-2998 colon it was 25.6 µM; in the test on MALME-3M melanoma, 41.1 µM; with NCI/ADR-RES ovarian, 1.51 µM. Besides, the TGI in the test on RPMI-8226 leukemia turned out to be 40.3 µM; in the test with SW-620 colon, 97.9 µM; with UACC-257 melanoma, 24.3 µM; in the test with UO-31 renal, 4.82 µM.
Turning to `Cc1cc(N(CCCNc2ccnc3cc(Cl)ccc23)Cc2ccco2)nc(N2CCN(C)CC2)n1`, the GI50 was 1830 nM with 786-0 renal; 4340 nM in the test on A549 NSCLC; 2840 nM in the test on CCRF-CEM leukemia; 1.98 µM in the test on HCC-2998 colon; 1.83 µM in the test with MALME-3M melanoma; 4.13 µM in the test on NCI/ADR-RES ovarian. Moreover, the GI50 was 2090 nM with RPMI-8226 leukemia, 2820 nM in the test on SW-620 colon, 1970 nM with UACC-257 melanoma and 2020 nM in the test with UO-31 renal. For the same compound, the TGI with 786-0 renal was determined as 3.63 µM; in the test on A549 NSCLC, 15.4 µM; in the test on CCRF-CEM leukemia it was 10.2 µM; in the test with HCC-2998 colon it was 4.88 µM; in the test on MALME-3M melanoma, 3.5 µM; with NCI/ADR-RES ovarian, 18.8 µM. The TGI in the test on RPMI-8226 leukemia worked out at 5.15 µM; in the test on SW-620 colon, 12.2 µM; with UACC-257 melanoma it was 3.8 µM; with UO-31 renal it was 5.33 µM.
As to `Nc1nc(Nc2ccccc2SSc2ccccc2Nc2nc(N)nc(C(Cl)(Cl)Cl)n2)nc(C(Cl)(Cl)Cl)n1`, the GI50 was 7000 nM in the test with 786-0 renal; 2950 nM in the test on A549 NSCLC; 3230 nM in the test on CCRF-CEM leukemia; 30.1 µM with HCC-2998 colon; 5.9 µM in the test on MALME-3M melanoma; 3.68 µM in the test on NCI/ADR-RES ovarian. In addition, the GI50 in the test on RPMI-8226 leukemia was 2940 nM; with SW-620 colon, 2670 nM; in the test on UACC-257 melanoma it was 11700 nM; in the test on UO-31 renal, 1560 nM. The TGI with 786-0 renal was 19.9 µM; in the test with A549 NSCLC it was 10.8 µM; with CCRF-CEM leukemia, 14 µM; with HCC-2998 colon, > 100 µM; in the test on MALME-3M melanoma, 18.6 µM; with NCI/ADR-RES ovarian it was 16.6 µM. Moreover, the TGI in the test with RPMI-8226 leukemia was found to be 10.2 µM; in the test on SW-620 colon, 7.99 µM; in the test on UACC-257 melanoma, 92.9 µM; in the test with UO-31 renal, 3 µM.
For the compound `C#CCNC(=O)[C@H](CC)[C@H]1CC[C@H](C)[C@H]([C@@H](C)[C@H](O)[C@H](C)C(=O)[C@H](CC)C2O[C@]3(C=CC(=O)[C@]4(CC[C@@](C)([C@H]5CC[C@](O)(CC)[C@H](C)O5)O4)O3)[C@H](C)C[C@@H]2C)O1` (stereo not given in full), the GI50 with 786-0 renal was 2670 nM; in the test with A549 NSCLC it was 2610 nM; in the test with CCRF-CEM leukemia, 2760 nM; in the test on HCC-2998 colon it was 2.35 µM; in the test with MALME-3M melanoma, 2.05 µM; with NCI/ADR-RES ovarian it was 2.26 µM. Moreover, the GI50 in the test with RPMI-8226 leukemia is 1770 nM; with SW-620 colon, 3120 nM; in the test with UACC-257 melanoma it was 1940 nM; in the test with UO-31 renal, 2010 nM. Also, the TGI turned out to be 8.19 µM in the test with 786-0 renal; 11.2 µM with A549 NSCLC; 19.3 µM in the test on CCRF-CEM leukemia; 5.89 µM in the test with HCC-2998 colon; 6.15 µM with MALME-3M melanoma; 7.72 µM in the test with NCI/ADR-RES ovarian. In addition, the TGI was 4.9 µM with RPMI-8226 leukemia, > 100 µM with SW-620 colon, 4.88 µM with UACC-257 melanoma and 7.81 µM in the test on UO-31 renal.

(Values after PubChem BioAssay (NCI).)
